In article PMC5963671, “Hes1 inhibitor isolated by target protein oriented natural products isolation (TPO-NAPI) of differentiation activators of neural stem cells† †Electronic supplementary information (ESI) available. See DOI: 10.1039/c5sc03540f” (Chemical Science, 2015):

T1: Hes1 (Rattus norvegicus, UniProt Q04666)
T1 construct: Rat-Hes1 (residues 3-281)
T1 sequence (Q04666 3-281): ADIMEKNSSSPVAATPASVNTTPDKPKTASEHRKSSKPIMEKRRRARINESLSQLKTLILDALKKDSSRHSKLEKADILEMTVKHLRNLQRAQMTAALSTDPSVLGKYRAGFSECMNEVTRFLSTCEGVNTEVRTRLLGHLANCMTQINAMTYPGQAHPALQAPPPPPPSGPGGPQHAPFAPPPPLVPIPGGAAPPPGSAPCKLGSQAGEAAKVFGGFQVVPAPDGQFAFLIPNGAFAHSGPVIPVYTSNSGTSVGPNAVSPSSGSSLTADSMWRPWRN


How the values were obtained:
[1] = biological target: T1, Hes1; assay: biochemical; design: Fluorescence plate assay of Hes1 dimer formation, immobilized Hes1 with Cy3-labeled Hes1; settings: Hes1 dimer formation
Method: Nunc Immobilizer™ Amino 96 well plate, white (Nalge Nunc Int.) was used for immobilizing of Hes1. The wells were incubated with 100 μL of Hes1 (10 μg mL^–1 in PBS) for 2 h at 4 °C. After the removal of protein solution, to block remaining activated units on the well, the wells were incubated for 2 h at 4 °C with 100 μL of 10 mM ethanolamine (in 100 mM Na2CO3 buffer, pH 9.6), then washed twice with 200 μL of PBST (PBS containing 0.05% Tween 20). The Hes1 bound microplate wells were incubated with 50 μL of Cy3-labeled-Hes1 in NET-N buffer (ca. 7 mg L^–1, dye/protein = 0.65) for 24 h at 4 °C. After removal of protein solution, each well was washed twice with 200 μL of PBST, then each compound solution (NET-N buffer, 50 μL) was added. After incubation for 1 h at RT in the dark, each well was washed twice with 200 μL of PBST, then dried under reduced pressure 1 h in the dark. The fluorescence intensity was measured in a microplate reader (Fluoroskan Ascent, Thermo). The Cy3 dye was excited at 530 nm and emitted at 590 nm. Usually, the assays were carried out in three individual wells, and the mean value and SD were calculated. Fig. 4 Hes1 dimer formation inhibitory activity. (a) Schematic representation of the assay for inhibitors of Hes1 dimer formation. Rat-Hes1 (residues 3-281) was exposed to Cy3-labeled Hes1. Hes1 dimer was detected through its fluorescence intensity.[40] The assay was performed after the equilibrium of exchange between immobilized Hes1 with Cy3-Hes1 and unlabeled Hes1 which was estimated to be included as unlabeled Hes1 dimers at the immobilizing stage. (b) Hes1 dimer formation inhibition by the isolated compounds 2–4. […] The complex was detected with horseradish peroxidase (HRP) conjugated anti-GST antibody. […] The ratio of dye/protein was calculated from the absorption for Cy3 (ε 150000 M-1 cm-1 at 552 nm). […] Fluorescence plate assay for inhibitors of Hes1 dimer formation Nunc ImmobilizerTM Amino 96 well plate, white (Nalge Nunc Int.) was used for immobilizing of Hes1. […] The fluorescence intensity was measured in a microplate reader (Fluoroskan Ascent, Thermo). […]

[2] = biological target: T1, Hes1; assay: Hes1 dimer fluorescence plate assay (Cy3-Hes1); binding also shown by GST-Hes1 beads-HPLC with truncated proteins
[3] = biological target: T1, Hes1; assay: Hes1 dimer fluorescence plate assay (Cy3-Hes1); binding also shown by GST-Hes1 beads-HPLC
[4] = biological target: the molecule itself; assay: fluorescence plate assay (Hes1 dimer plate assay); Hes1 (10 μg/mL in PBS) immobilised on a Nunc Immobilizer Amino 96 well plate; Cy3-labeled Hes1 (ca. 7 mg/L) in NET-N buffer for 24 h at 4 °C; washed with PBST; fluorescence read at 530/590 nm

IC50 [1] | Molecule | other results
> 64 µM | COc1c(O)cc2oc3cc(O)c(CC=C(C)C)c(O)c3c(=O)c2c1CC=C(C)C [compound 5, α-Mangostine] | –
– | COc1ccc(-c2cc(=O)c3c(O[C@@H]4O[C@H](CO[C@@H]5OC[C@@H](O)[C@H](O)[C@H]5O)[C@@H](O)[C@H](O)[C@H]4O)cc(OC)cc3o2)cc1 [compound 2, agalloside] | IC50 [2]: 10.1 µM
– | COc1cc(O[C@@H]2O[C@H](CO[C@@H]3OC[C@@H](O)[C@H](O)[C@H]3O)[C@@H](O)[C@H](O)[C@H]2O)c2c(=O)cc(-c3ccc(OC)c(OC)c3)oc2c1 [compound 4, lethedioside A] | IC50 [3]: 9.5 µM
> 64 µM | COc1cc(O[C@@H]2O[C@H](CO[C@@H]3OC[C@@H](O)[C@H](O)[C@H]3O)[C@@H](O)[C@H](O)[C@H]2O)c2c(=O)cc(-c3ccc(O)cc3)oc2c1 [compound 3, genkwanin 5-O-β-D-xylosyl-β-D-glucoside] | –
3.7 µM | CCCC(=O)/C=C/C1=C(O)C(=O)c2cc(O)c(O)cc2C1=O [compound 1, lindbladione] | –
– | Rat-Hes1 (residues 3-281) (natural protein, UniProt Q04666 3-281, looked up, Cy3 label on the copy added in solution (dye/protein = 0.65); the immobilised copy is unlabelled, Hes1 (hairy and Enhancer of split 1), rat, residues 3-281; One copy was coupled to a Nunc Immobilizer Amino plate and the other was Cy3-labelled; also called Cy3-labeled Hes1; Cy3-Hes1) ADIMEKNSSSPVAATPASVNTTPDKPKTASEHRKSSKPIMEKRRRARINESLSQLKTLILDALKKDSSRHSKLEKADILEMTVKHLRNLQRAQMTAALSTDPSVLGKYRAGFSECMNEVTRFLSTCEGVNTEVRTRLLGHLANCMTQINAMTYPGQAHPALQAPPPPPPSGPGGPQHAPFAPPPPLVPIPGGAAPPPGSAPCKLGSQAGEAAKVFGGFQVVPAPDGQFAFLIPNGAFAHSGPVIPVYTSNSGTSVGPNAVSPSSGSSLTADSMWRPWRN | binding result [4]: binds
